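Interpolation was linear, between the two tested concentrations surrounding the appropriate level; five concentrations were tested over 48 hours in 96-well plates. Here, GI50 denotes the concentration required for 50% inhibition of growth.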 Activity calls are given as the source filed them. Cut-off read from the data, not from the text of the source: active = GI50 up to about 1.1 µM and inactive = higher.
Assays:
Assay in all cases: NCI anticancer screen, dose series, 48 h
ACHN = system: ACHN
OVCAR-5 = system: OVCAR-5
CCRF-CEM = system: CCRF-CEM
NCI/ADR-RES = system: NCI/ADR-RES
SK-OV-3 = system: SK-OV-3
CAKI-1 = system: CAKI-1
SK-MEL-28 = system: SK-MEL-28
HOP-62 = system: HOP-62
OVCAR-4 = system: OVCAR-4
UO-31 = system: UO-31
U-251 = system: U-251
RXF 393 = system: RXF 393
EKVX = system: EKVX
KM12 = system: KM12
RPMI-8226 = system: RPMI-8226
SW-620 = system: SW-620
SNB-75 = system: SNB-75
SR = system: SR
NCI-H226 = system: NCI-H226

Measured: GI50

Cc1ccc(S(=O)(=O)NNC2(NS(=O)(=O)c3ccc(Cl)cc3)C(Cl)=C(Cl)C(=O)c3ccccc32)cc1 (stereo not drawn)
inactive: ACHN 16.1 µM | OVCAR-5 18.3 µM | CCRF-CEM 22.9 µM | NCI/ADR-RES 23.1 µM | SK-OV-3 16.9 µM | CAKI-1 18.4 µM | SK-MEL-28 25.7 µM | HOP-62 21.3 µM | OVCAR-4 16.1 µM | UO-31 26.8 µM | U-251 21.8 µM | RXF 393 17 µM | EKVX 15.5 µM | KM12 17.3 µM | RPMI-8226 5.4 µM | SW-620 26 µM

N#CC1CC2(C(=O)C1=O)c1ccccc1-c1ccccc12 (stereo not drawn)
inactive: ACHN > 100 µM | OVCAR-5 > 100 µM | CCRF-CEM 67.5 µM | SNB-75 > 100 µM | SR > 100 µM | SK-OV-3 > 100 µM | CAKI-1 > 100 µM | SK-MEL-28 > 100 µM | HOP-62 > 100 µM | OVCAR-4 > 100 µM | NCI-H226 > 100 µM | UO-31 > 100 µM | U-251 > 100 µM | RXF 393 > 100 µM | EKVX > 100 µM | KM12 > 100 µM | SW-620 > 100 µM

CSc1ccc(/C=C2\N=C(c3ccccc3)N(c3nc4ccc(Sc5ccccc5)cc4[nH]3)C2=O)cc1
inactive: ACHN 30.8 µM | OVCAR-5 26.2 µM | CCRF-CEM 27.4 µM | NCI/ADR-RES 19.4 µM | SNB-75 18.1 µM | SK-OV-3 14.7 µM | CAKI-1 21.5 µM | SK-MEL-28 18.9 µM | HOP-62 17.2 µM | OVCAR-4 30.9 µM | UO-31 18.3 µM | U-251 16.7 µM | RXF 393 17.4 µM | EKVX 31 µM | KM12 15.3 µM | RPMI-8226 20.2 µM | SW-620 17.9 µM

COc1ccc(/C=N/N=C(\N)NO)cc1O
inactive: OVCAR-5 > 100 µM | CCRF-CEM > 100 µM | SK-OV-3 80.2 µM | CAKI-1 48.2 µM | SK-MEL-28 49.8 µM | OVCAR-4 45.4 µM | NCI-H226 33.4 µM | UO-31 45 µM | U-251 62.5 µM | RXF 393 41.7 µM | EKVX 29.3 µM | KM12 45.8 µM | RPMI-8226 > 100 µM | SW-620 44.7 µM

N#Cc1nc(-c2ccccc2O)oc1N
inactive: ACHN > 100 µM | OVCAR-5 > 100 µM | CCRF-CEM 16.4 µM | SK-OV-3 > 100 µM | CAKI-1 36.9 µM | SK-MEL-28 > 100 µM | HOP-62 > 100 µM | U-251 > 100 µM | RXF 393 55.7 µM | EKVX 48.5 µM | KM12 42 µM | RPMI-8226 20.4 µM | SW-620 65 µM

N#CC(C#N)=CNC(=S)Nc1ccc(S(=O)(=O)Nc2nccs2)cc1
inactive: ACHN > 100 µM | OVCAR-5 > 100 µM | NCI/ADR-RES > 100 µM | SNB-75 > 100 µM | SK-OV-3 > 100 µM | CAKI-1 > 100 µM | SK-MEL-28 > 100 µM | HOP-62 > 100 µM | OVCAR-4 > 100 µM | NCI-H226 > 100 µM | UO-31 > 100 µM | U-251 > 100 µM | RXF 393 > 100 µM | EKVX > 100 µM | KM12 > 100 µM | SW-620 > 100 µM

COC1(C)C(=O)N2C1N(C(=O)OC(C)(C)C)CC2(C)C (stereo not drawn)
inactive: ACHN > 100 µM | OVCAR-5 > 100 µM | CCRF-CEM > 100 µM | SNB-75 > 100 µM | SK-OV-3 > 100 µM | CAKI-1 > 100 µM | SK-MEL-28 > 100 µM | HOP-62 > 100 µM | OVCAR-4 > 100 µM | NCI-H226 > 100 µM | UO-31 > 100 µM | U-251 > 100 µM | RXF 393 > 100 µM | EKVX > 100 µM | KM12 > 100 µM | RPMI-8226 44.8 µM | SW-620 17.5 µM

Cc1cccc2c1CCC21OC(=O)c2c1ccc1ccccc21 (stereo not drawn)
inactive: ACHN 79.1 µM | OVCAR-5 88.5 µM | CCRF-CEM 38.6 µM | SNB-75 82.6 µM | SR 29.2 µM | SK-OV-3 37.3 µM | CAKI-1 34.5 µM | SK-MEL-28 58.2 µM | HOP-62 70.1 µM | OVCAR-4 52.6 µM | NCI-H226 56.4 µM | UO-31 47.4 µM | U-251 45.8 µM | RXF 393 64 µM | EKVX 68.5 µM | KM12 56.9 µM | SW-620 39.2 µM

CC(C)OC1=C(CC2(C)OCCO2)C(=O)C12OCCO2
inactive: ACHN > 100 µM | OVCAR-5 > 100 µM | CCRF-CEM > 100 µM | NCI/ADR-RES > 100 µM | SNB-75 > 100 µM | SK-OV-3 > 100 µM | CAKI-1 > 100 µM | SK-MEL-28 > 100 µM | HOP-62 > 100 µM | OVCAR-4 > 100 µM | NCI-H226 > 100 µM | UO-31 > 100 µM | U-251 > 100 µM | EKVX > 100 µM | KM12 > 100 µM | SW-620 > 100 µM

CN1C(=O)c2c(ccc3c2OCO3)C2C(O)Cc3cc4c(cc3C21)OCO4 (stereo not drawn)
inactive: ACHN 7.21 µM | OVCAR-5 > 100 µM | CCRF-CEM 3.37 µM | NCI/ADR-RES 3.03 µM | SNB-75 1.89 µM | SK-OV-3 2.98 µM | CAKI-1 4.76 µM | SK-MEL-28 3.22 µM | OVCAR-4 > 100 µM | NCI-H226 2.15 µM | UO-31 6.37 µM | U-251 4.29 µM | EKVX 3.28 µM | KM12 3.15 µM | RPMI-8226 3.83 µM | SW-620 3.79 µM

CCOC(=O)c1c(N)sc2c1C(C)(C(=O)OCC)CC2 (stereo not drawn)
inactive: ACHN > 100 µM | OVCAR-5 > 100 µM | SNB-75 88.3 µM | SR 92.7 µM | SK-MEL-28 > 100 µM | HOP-62 > 100 µM | NCI-H226 > 100 µM | UO-31 63.8 µM | U-251 > 100 µM | RXF 393 > 100 µM | EKVX 38.6 µM | KM12 > 100 µM | RPMI-8226 78.5 µM | SW-620 > 100 µM

CN(C)CCNc1ccc(NCC[N+](C)(C)Cc2ccc([N+](=O)[O-])cc2)c2c1C(=O)c1c(O)ccc(O)c1C2=O
inactive: CCRF-CEM 11.5 µM | NCI/ADR-RES > 100 µM | SNB-75 19.6 µM | CAKI-1 12.2 µM | SK-MEL-28 > 100 µM | HOP-62 79.3 µM | OVCAR-4 > 100 µM | NCI-H226 15.3 µM | U-251 34 µM | EKVX > 100 µM | KM12 26.1 µM | RPMI-8226 7.57 µM | SW-620 27.9 µM

CCc1cccc(CC)c1NC(=O)C1=C(C)NC(C)=C(C(=O)Nc2c(CC)cccc2CC)C1c1ccc2c(c1)OCO2
inactive: ACHN 19.4 µM | OVCAR-5 17.7 µM | CCRF-CEM 5.93 µM | SNB-75 18.8 µM | SR 3.66 µM | SK-OV-3 25.8 µM | CAKI-1 20.1 µM | SK-MEL-28 20 µM | HOP-62 19.2 µM | OVCAR-4 16.6 µM | NCI-H226 15 µM | UO-31 17.1 µM | U-251 14 µM | EKVX 19.9 µM | KM12 20.4 µM | RPMI-8226 22.5 µM | SW-620 17 µM

Reference: ChEMBL document CHEMBL1201862, “PubChem BioAssay data set” (2004)
